Measured values from patent publication US20100184094A1, “USE OF MDCK CELLS IN THE EVALUATION OF CHOLESTEROL MODULATORS” (priority 2007, published 2010).

How the values were obtained:
human NPC1L1 [1] = target: T1, human NPC1L1 (Homo sapiens, UniProt Q9UHC9); experiment: [3H]AS binding to hNPC1L1/MDCKII-Flp cells; details: FIG. 7D, read-out: Ki inhibition of [3H]AS binding
T1 construct: expressed in transfected cells
T1 sequence (Q9UHC9 22-1359): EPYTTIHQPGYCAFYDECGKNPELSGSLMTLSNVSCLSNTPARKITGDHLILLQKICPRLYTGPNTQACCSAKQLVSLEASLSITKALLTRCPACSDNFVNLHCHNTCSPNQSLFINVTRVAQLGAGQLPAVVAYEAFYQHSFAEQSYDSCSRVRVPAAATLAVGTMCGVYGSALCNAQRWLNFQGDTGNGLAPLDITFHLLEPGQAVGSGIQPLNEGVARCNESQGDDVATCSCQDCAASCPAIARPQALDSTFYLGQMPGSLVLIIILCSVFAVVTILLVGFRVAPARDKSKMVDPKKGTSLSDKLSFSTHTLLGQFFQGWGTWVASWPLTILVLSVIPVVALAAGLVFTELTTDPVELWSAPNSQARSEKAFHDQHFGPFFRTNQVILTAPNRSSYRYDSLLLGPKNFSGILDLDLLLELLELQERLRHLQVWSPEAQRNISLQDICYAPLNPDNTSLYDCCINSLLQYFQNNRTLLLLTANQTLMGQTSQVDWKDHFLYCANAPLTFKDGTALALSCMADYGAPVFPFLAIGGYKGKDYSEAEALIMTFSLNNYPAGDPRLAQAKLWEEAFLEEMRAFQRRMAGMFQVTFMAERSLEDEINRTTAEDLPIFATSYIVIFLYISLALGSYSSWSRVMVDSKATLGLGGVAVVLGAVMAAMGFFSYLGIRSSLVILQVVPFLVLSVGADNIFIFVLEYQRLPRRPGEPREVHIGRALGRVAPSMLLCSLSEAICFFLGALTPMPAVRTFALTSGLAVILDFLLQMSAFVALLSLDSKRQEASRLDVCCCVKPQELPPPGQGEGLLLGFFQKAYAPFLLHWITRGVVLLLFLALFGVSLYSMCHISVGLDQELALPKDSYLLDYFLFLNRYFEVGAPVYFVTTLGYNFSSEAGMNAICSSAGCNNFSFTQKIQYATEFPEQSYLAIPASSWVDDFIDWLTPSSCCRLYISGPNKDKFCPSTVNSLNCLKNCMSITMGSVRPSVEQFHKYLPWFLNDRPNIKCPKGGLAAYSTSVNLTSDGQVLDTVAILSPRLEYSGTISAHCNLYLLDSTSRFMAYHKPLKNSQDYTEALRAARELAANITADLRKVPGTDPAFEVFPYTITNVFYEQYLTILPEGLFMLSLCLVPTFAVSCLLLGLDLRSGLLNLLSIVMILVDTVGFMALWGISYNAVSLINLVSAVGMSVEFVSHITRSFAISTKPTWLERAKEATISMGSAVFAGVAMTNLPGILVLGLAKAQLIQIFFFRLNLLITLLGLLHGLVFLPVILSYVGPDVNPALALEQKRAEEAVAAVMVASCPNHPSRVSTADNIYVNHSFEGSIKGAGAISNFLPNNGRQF
Protocol: (§1) rNPC1L1/HEK293 and TsA201 cells were seeded at a density of 10,000 cells per well in 96-well poly-D-lysine coated plates and cells were allowed to attach for approximately 18 h at 37° C. TsA201 cells were subsequently transfected with dog NPC1L1/pcDNA5/FRT according to the manufacturer's instructions (Roche) and incubated for 3 days at 37° C. MDCKII-derived, LLC-PKI, HepG2, or CaCo-2 cells were seeded at a density of 25,000 cells per well in 96-well tissue culture treated plates, and cells were allowed to attach and differentiate for approximately 72 h at 37° C., except for CaCo-2 cells where differentiation took approximately 14 days at 37° C. […] Duplicate samples were averaged for each experimental point. […] Dissociation kinetics were determined by addition of 100 μM EZE-gluc, and incubating for different periods of time. Nonspecific binding was defined in the presence of 100 μM EZE-gluc. At the end of the incubation period, cells were washed twice with 200 μl of pre-warmed DMEM to separate bound from free ligand, 1% SDS was added to the wells followed by 5 ml of Scintillant, and radioactivity associated with cells was determined using a β-counter. […] Thereafter, plates were placed on ice and cells were washed twice with ice-cold PBS, followed by ice-cold acid wash with DMEM, pH 3.5, for 1, 5 or 15 minutes. […] For Transwell experiments, MDCKII cells were seeded at 200,000 cells/well in a 24-well plate and incubated for 3 days at 37° C. […] Thereafter, both apical and basolateral compartments were washed three times with PBS, and the Transwell filter was cut out and its associated radioactivity determined using afi-counter. Data from saturation, competition and ligand dissociation experiments were analyzed as described in the literature; see, Priest, et al., 2004 Biochemistry 43:9866-9876; Knaus et al., 1995 Biochemistry 34:13627-13634. The association rate, k1, was determined by employing the pseudo-first-order rate equation k1=kobs([LR]e/[L][LR]max)) where [LR]max is the concentration of the complex at equilibrium, [L] is the concentration of ligand, [LR]max is the total receptor concentration, kobs is the slope of the pseudo-first order plot, ln([LR]e/([LR]e−[LR]t)) versus time, and [LR]t is the receptor-ligand complex at one given time point t.
To validate MDCKII cells as an appropriate surrogate system for monitoring NPC1L1-dependent processes, we evaluated their ability to perform EZE-sensitive cholesterol flux using a similar protocol to that recently reported. This assay makes use of the ability of βmCD to deplete membrane-bound cholesterol. […]
(§2) To further characterize the [^3H] cholesterol influx process into MDCK cells, the potency of EZE-like compound PS for inhibiting [^3H] cholesterol uptake was determined.

human NPC1L1 [2] = target: T1, human NPC1L1; experiment: [3H]cholesterol flux into hNPC1L1/MDCKII-Flp cells; type: cell-based; details: hNPC1L1/MDCKII-Flp, FIG. 7D; read-out: IC50 block of [3H]cholesterol flux
Protocol: Flux assays were performed essentially as described by Yu et al., 2006 J Biol. Chem. 281:6616-6624. Briefly, cell growth medium was completely aspirated and replaced with 200 μl of 5% LPDS containing the appropriate concentration of compound and incubated at 37° C./3 h in a 5% CO2 incubator. Media was subsequently aspirated from cells and cells were incubated in 200 μl of 0-5.5% βmCD dissolved and filtered through a […] filter at 37° C./45 minutes in a 5% CO2 incubator. Media was dumped from cells that were then washed twice with 125 μl of 5% LPDS before media was aspirated and [3H]cholesterol complexed to BSA in 5% LPDS was added; see Yu et al., 2006 J. Biol. Chem. 281:6616-6624. After 45 minute incubation, cells were washed twice with DMEM, thoroughly aspirated and then 1% SDS was added prior to extraction for scintillation counting.
To validate MDCKII cells as an appropriate surrogate system for monitoring NPC1L1-dependent processes, we evaluated their ability to perform EZE-sensitive cholesterol flux using a similar protocol to that recently reported. This assay makes use of the ability of βmCD to deplete membrane-bound cholesterol. Subsequent exposure of cells to [^3H] cholesterol provides a time-dependent flux of this substrate into the cells. […] In an attempt to improve the assay window, a stable MDCKII-Flp cell line over-expressing human NPC1L1, hNPC1L1/MDCKII-Flp, was generated.
as §2

rat NPC1L1 = target: T2, rat NPC1L1 (Rattus norvegicus, UniProt Q6T3U3); experiment: [3H]AS binding to rNPC1L1/HEK293 cells (saturation, kinetics, competition, acid wash)
T2 construct: expressed in transfected cells
Protocol: rNPC1L1/HEK293 and TsA201 cells were seeded at a density of 10,000 cells per well in 96-well poly-D-lysine coated plates and cells were allowed to attach for approximately 18 h at 37° C. TsA201 cells were subsequently transfected with dog NPC1L1/pcDNA5/FRT according to the manufacturer's instructions (Roche) and incubated for 3 days at 37° C. MDCKII-derived, LLC-PKI, HepG2, or CaCo-2 cells were seeded at a density of 25,000 cells per well in 96-well tissue culture treated plates, and cells were allowed to attach and differentiate for approximately 72 h at 37° C., except for CaCo-2 cells where differentiation took approximately 14 days at 37° C. […] Duplicate samples were averaged for each experimental point. […] To determine the kinetics of ligand association, cells were incubated with [^3H]AS for different periods of time. Dissociation kinetics were determined by addition of 100 μM EZE-gluc, and incubating for different periods of time. Nonspecific binding was defined in the presence of 100 μM EZE-gluc. At the end of the incubation period, cells were washed twice with 200 μl of pre-warmed DMEM to separate bound from free ligand, 1% SDS was added to the wells followed by 5 ml of Scintillant, and radioactivity associated with cells was determined using a β-counter. […] Thereafter, plates were placed on ice and cells were washed twice with ice-cold PBS, followed by ice-cold acid wash with DMEM, pH 3.5, for 1, 5 or 15 minutes. […] For Transwell experiments, MDCKII cells were seeded at 200,000 cells/well in a 24-well plate and incubated for 3 days at 37° C. […] Thereafter, both apical and basolateral compartments were washed three times with PBS, and the Transwell filter was cut out and its associated radioactivity determined using afi-counter. Data from saturation, competition and ligand dissociation experiments were analyzed as described in the literature; see, Priest, et al., 2004 Biochemistry 43:9866-9876; Knaus et al., 1995 Biochemistry 34:13627-13634. The association rate, k1, was determined by employing the pseudo-first-order rate equation k1=kobs([LR]e/[L][LR]max)) where [LR]max is the concentration of the complex at equilibrium, [L] is the concentration of ligand, [LR]max is the total receptor concentration, kobs is the slope of the pseudo-first order plot, ln([LR]e/([LR]e−[LR]t)) versus time, and [LR]t is the receptor-ligand complex at one given time point t.
Incubation of rNPC1L1/HEK293 cells with 5 nM [311]AS results in a time-dependent association of ligand with cells that reaches equilibrium in ˜3 h (FIG. 1B). The nonspecific binding component is time-independent and has been subtracted from the experimental data. A semilogarithmic transformation of the data yielded a linear dependence (FIG. 1B, inset), as expected for a pseudo-first order reaction, and the slope of this line gives kobs of 0.0208 min^−1. The association rate constant, k1, calculated as described under Example 3, is 2.4×10^6 M^−1 min^−1.
Ki values, determined as described above, are presented in Table 1 below and display the expected rank order of potency for interaction of these ligands with rat NPC1L1; Garcia-Calvo et al., 2005 Proc. Natl. Acad. Sci. USA 102:8132-8137.
Such an approach has previously been previously used to characterize cell surface, non-covalent interactions; Hopkins & Trowbridge, 1983 J. Cell Biol. 97:508-521; Chen et al., 1998 Proc. Natl. Acad. USA 95:6373-6378.

[3] = target: dog NPC1L1 endogenously expressed in MDCKII cells (Canis lupus familiaris, UniProt A0A8I3RZG1); experiment: [3H]AS binding to MDCKII cells (saturation, kinetics, competition, acid wash)
Protocol: as §1

dog NPC1L1 = dog NPC1L1 (Canis lupus familiaris, UniProt A0A8I3RZG1); experiment: [3H]AS binding to dog NPC1L1 transiently expressed in TsA201 cells
Protocol: as §1
To further validate this statement, cloned dog NPC1L1 was transiently expressed in TsA201 cells and binding of [^3]AS to these cells was then characterized (FIG. 5 and Table 1).

[4] = test system: surface expression of NPC1L1 in MDCKII cells; experiment: Effect of lovastatin on surface expression of NPC1L1 ([3H]AS binding) in MDCKII cells; type: cell-based, dog; details: 4 μM lovastatin; for effect on [3H]AS binding: cells grown in 5% LPDS, 72 h
Protocol: To determine whether the expression pattern of NPC1L1 in MDCKII cells is sensitive to changes in the endogenous concentration of cholesterol, MDCKII cells were seeded and grown in either 10% FBS or 5% lipoprotein deficient serum (5% LPDS) in the absence or presence of the HMG CoA reductase inhibitor, lovastatin.

Sequence of dog NPC1L1 (A0A8I3RZG1 entry or part of it): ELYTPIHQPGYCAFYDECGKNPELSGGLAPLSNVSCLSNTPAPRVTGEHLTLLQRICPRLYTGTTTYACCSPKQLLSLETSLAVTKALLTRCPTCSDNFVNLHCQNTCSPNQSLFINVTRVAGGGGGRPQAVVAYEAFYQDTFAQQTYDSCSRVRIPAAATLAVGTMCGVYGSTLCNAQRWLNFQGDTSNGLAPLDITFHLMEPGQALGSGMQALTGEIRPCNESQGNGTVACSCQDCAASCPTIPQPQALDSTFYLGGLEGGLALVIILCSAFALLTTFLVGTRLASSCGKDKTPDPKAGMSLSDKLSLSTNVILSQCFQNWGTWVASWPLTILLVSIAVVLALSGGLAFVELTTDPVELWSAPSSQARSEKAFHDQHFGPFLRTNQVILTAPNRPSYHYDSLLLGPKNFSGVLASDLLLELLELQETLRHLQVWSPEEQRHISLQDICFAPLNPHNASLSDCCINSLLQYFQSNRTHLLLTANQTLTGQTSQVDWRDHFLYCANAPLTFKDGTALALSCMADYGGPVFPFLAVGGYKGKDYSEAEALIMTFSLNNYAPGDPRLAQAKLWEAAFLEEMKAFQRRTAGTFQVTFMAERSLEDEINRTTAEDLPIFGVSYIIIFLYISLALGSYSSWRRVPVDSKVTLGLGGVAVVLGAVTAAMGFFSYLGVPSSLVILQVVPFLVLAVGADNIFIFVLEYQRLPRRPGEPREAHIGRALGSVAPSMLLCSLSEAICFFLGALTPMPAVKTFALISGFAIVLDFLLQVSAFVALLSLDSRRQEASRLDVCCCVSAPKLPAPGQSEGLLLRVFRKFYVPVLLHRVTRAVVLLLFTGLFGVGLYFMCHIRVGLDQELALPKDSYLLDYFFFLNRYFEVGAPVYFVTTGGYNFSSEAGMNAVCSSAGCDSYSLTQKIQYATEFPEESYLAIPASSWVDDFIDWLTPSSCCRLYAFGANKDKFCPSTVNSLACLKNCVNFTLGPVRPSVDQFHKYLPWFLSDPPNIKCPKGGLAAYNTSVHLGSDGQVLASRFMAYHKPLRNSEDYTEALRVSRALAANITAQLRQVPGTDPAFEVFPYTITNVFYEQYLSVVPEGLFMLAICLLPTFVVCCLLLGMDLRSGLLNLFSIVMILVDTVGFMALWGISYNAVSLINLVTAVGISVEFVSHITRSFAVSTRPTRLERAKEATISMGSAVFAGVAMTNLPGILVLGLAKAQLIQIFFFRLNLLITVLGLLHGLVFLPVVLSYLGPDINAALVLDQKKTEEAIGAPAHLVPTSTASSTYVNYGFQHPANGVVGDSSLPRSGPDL
Sequence of dog NPC1L1 endogenously expressed in MDCKII cells (A0A8I3RZG1 entry or part of it): as above

`O=C(O)C1OC(Oc2ccc(C3C(CCC(O)c4ccc(F)cc4)C(=O)N3c3ccc(F)cc3)cc2)C(O)C(O)C1O` (single isomer, unassigned; ent-1) [ent-1] showed a Ki (human NPC1L1 [1]) of over 100000 nM and an IC50 (human NPC1L1 [2]) of over 100000 nM.

`CS(=O)(=O)NCCCc1ccc(N2C(=O)[C@H](CC[C@H](O)c3ccc(F)cc3)[C@H]2c2ccc(O[C@@H]3O[C@H](C(=O)O)[C@@H](O)[C@H](O)[C@H]3O)cc2)cc1` [AS, 4-[(2S,3R)-3-[(3S)-3-(4-fluorophenyl)-3-hydroxypropyl]-1-(4-{3-[(methylsulfonyl)amino]propyl}phenyl)-4-oxoazetidin-2-yl]phenyl β-D-gluteopyranosiduronic acid] showed an IC50 (rat NPC1L1; 5.36 nM [3H]AS, 4 h, 37° C., read-out: IC50 inhibition of [3H]AS binding) of 5.25 nM, a Ki (rat NPC1L1; rNPC1L1/HEK293 cells) of 2.35 ± 0.49 nM and a Kd (rat NPC1L1; rNPC1L1/HEK293 cells, increasing [3H]AS, 4 h, 37° C., read-out: Kd (equilibrium dissociation constant, saturation binding)) of 4.62 ± 0.69 nM. The IC50 ([3]; 5.49 nM [3H]AS, 4 h, 37° C., read-out: IC50 inhibition of [3H]AS binding) was 2.86 nM, the Ki ([3]; MDCKII cells) was 0.34 ± 0.04 nM and the Kd ([3]; MDCKII cells, increasing [3H]AS, 4 h, 37° C.) was 0.59 ± 0.07 nM. For the same compound, the IC50 (dog NPC1L1; 4.65 nM [3H]AS, 4 h, 37° C., read-out: IC50 inhibition of [3H]AS binding) was 3.79 nM, the Kd (dog NPC1L1; dog NPC1L1/TsA201 cells, read-out: Kd (saturation binding)) was 2.15 ± 0.39 nM and the Ki (dog NPC1L1; dog NPC1L1/TsA201 cells, read-out: Ki (competition with [3H]AS)) was 1 ± 0.11 nM.

For `CC[C@H](C)C(=O)O[C@H]1C[C@@H](C)C=C2C=C[C@H](C)[C@H](CC[C@@H]3C[C@@H](O)CC(=O)O3)[C@H]21` [lovastatin], the “effect on [3H]AS binding” value [4] was “doubles”, the “effect on [3H]AS binding” value ([4]; listed as Lovastatin) was “increase” and the “effect on surface expression of NPC1L1” value ([4]; cells grown in 10% FBS) was “does not cause any significant effect”.
